# Assay results taken from patent US20110236461A1, “METHODS FOR STIMULATING CHONDROGENESIS UTILIZING A POTASSIUM CHANNEL INHIBITOR” (priority 2008, published 2011).
# T1: Kv4.2 potassium channel encoded by Kcnd2 (Homo sapiens, UniProt Q9NZV8)
# T1 sequence (Q9NZV8 1-630): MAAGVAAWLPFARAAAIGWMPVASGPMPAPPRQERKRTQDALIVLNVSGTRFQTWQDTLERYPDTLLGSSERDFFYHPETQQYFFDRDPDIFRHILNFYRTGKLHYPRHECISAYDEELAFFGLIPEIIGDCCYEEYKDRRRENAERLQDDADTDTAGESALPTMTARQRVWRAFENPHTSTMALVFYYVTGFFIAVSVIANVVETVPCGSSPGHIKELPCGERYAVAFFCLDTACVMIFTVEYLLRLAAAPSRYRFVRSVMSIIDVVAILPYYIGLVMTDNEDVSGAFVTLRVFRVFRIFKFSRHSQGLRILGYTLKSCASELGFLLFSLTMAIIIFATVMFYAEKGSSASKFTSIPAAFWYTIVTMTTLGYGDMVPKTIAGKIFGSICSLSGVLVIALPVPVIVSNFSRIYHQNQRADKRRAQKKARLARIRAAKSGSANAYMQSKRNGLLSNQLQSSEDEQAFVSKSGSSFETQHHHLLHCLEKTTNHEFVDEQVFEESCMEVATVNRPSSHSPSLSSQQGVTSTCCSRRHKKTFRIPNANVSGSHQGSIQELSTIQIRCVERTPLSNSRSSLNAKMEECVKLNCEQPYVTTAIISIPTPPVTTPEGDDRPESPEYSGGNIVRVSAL
# Columns and labels:
# [1] = test system: pGL3(4×48) reporter gene (Sox5/6/9 binding sites); assay: PLM transfection assay, pGL3(4×48) luciferase reporter; assay type: cell-based, murine; settings: PLM cultures, relative to control
# Protocol: (§1) Primary limb mesenchymal (PLM) cultures were established from CD-1 murine embryonic limbs (E11.5) as previously described (Hoffman et al., J. Cell 174:101-13 (2006); Weston et al., J. Cell Biol., 158:39-51 (2002)). Limb mesenchyme was dissociated by dispase treatment and a single cell suspension was obtained by filtration through a […] cell strainer (BD Biosciences). PLM cells were pelleted by centrifugation at 200×g and resuspended to produce a stock cell suspension at a concentration of 2.0×10^7 cells/ml. Cells were used for transfection (Example 2) or for establishment of cultures for alcian blue staining.
# Stock plasmid DNAs were standardized to a concentration of 1 mg/ml. For co-transfections, a ratio of 3:1 gene of interest to reporter gene was used. Luciferase reporter genes consist of a firefly reporter gene, pGL3(4×48), and a Renilla (Renilla reniformis) luciferase reporter phRL-SV40 to normalize for transfection efficiency. Transfections were carried out using Effectene reagent (Qiagen). The pGL3(4×48) reporter contains four repeats of a Sox5/6/9 binding site. Reporter plasmids containing Sox5/6/9 binding sites (pGL3[4×48]) were previously described (Weston et al., J. Cell Biol., 158:39-51 (2002)).
# This dose range is consistent with previous studies on butamben binding and inhibition of potassium channels. […]
# [2] = test system: voltage-gated potassium channel Kv1 and 4 classes; settings: Winkelman et al. 2005; Beekwilder et al. 2003; cited from earlier work
# [3] = target: T1, Kv4.2 potassium channel encoded by Kcnd2; settings: Winkelman et al. 2005; cited from earlier work
# [4] = test system: Sox9; assay: Sox9 expression in PLM cultures by RT-qPCR; assay type: cell-based, murine; settings: PLM cultures treated for 1 or 3 days, relative to control
# Protocol: as §1
# To follow the expression of transcripts for Kcnd2 and Sox9, quantitative real-time PCR was performed using the 7500 Fast Sequence Detection System (Applied Biosystems). The primer/probe set used for detection of Sox9 was as described in Weston et al., J. Cell Biol., 158:39-51 (2002). For detection of all other transcripts, TaqMan Gene Expression Assays (Applied Biosystems) were used. Total RNA was isolated from primary cultures, and an aliquot was reverse transcribed to cDNA using a High Capacity cDNA Archive kit (Applied Biosystems). Quantification was performed using ˜10 ng of total RNA and the expression of all genes relative to endogenous rRNA was determined using TaqMan Ribosomal Control Reagents (Applied Biosystems). […]
# [5] = test system: pGL3(4×48) reporter; assay: pGL3(4×48) reporter in high-density murine limb bud-derived cultures, compounds alone or in combination; assay type: cell-based; settings: BMP4 20 ng/ml, BAB 10 μM, 4310 100 nM; 24 h and 72 h after treatment; normalized to untreated controls
# Protocol: High-density murine limb bud-derived cultures were established as previously described (Hoffman 2006). Media was replaced every two days. Cells were transfected on day 0 with pGL3(4×48) (reporter) and phRL-SV40 (to normalize transfection efficiency) plasmids using Effectene transfection reagent (Qiagen). Twenty-four hours after transfection, cells were treated with the following final concentrations of compounds, either individually or in combination: BMP4 (20 ng/ml), butamben (BAB) (10 μM), and the pan-RAR antagonist 4310 (100 nM). Lysates were collected at 24 h and 72 h after treatment. Luciferase activity was measured using the Dual-Luciferase® kit according to the manufacturer's instructions (Promega). Reporter activity was normalized to untreated controls (−) on the same day.
# [6] = test system: primary limb mesenchymal (PLM) cultures; assay: alcian blue staining of PLM cultures; assay type: cell-based, murine; settings: PLM transfection assays and alcian blue staining experiments
# Protocol: Primary limb mesenchymal (PLM) cultures were established from CD-1 murine embryonic limbs (E11.5) as previously described (Hoffman et al., J. Cell 174:101-13 (2006); Weston et al., J. Cell Biol., 158:39-51 (2002)). Limb mesenchyme was dissociated by dispase treatment and a single cell suspension was obtained by filtration through a […] cell strainer (BD Biosciences). PLM cells were pelleted by centrifugation at 200×g and resuspended to produce a stock cell suspension at a concentration of 2.0×10^7 cells/ml. Cells were used for transfection (Example 2) or for establishment of cultures for alcian blue staining. For the latter, 10 μl of PLM cells were spotted into the well of a 24-well plate, and allowed to adhere for 1 h. Culture medium consisting of 60% Ham's F12 nutrient mix/40% Dulbecco's modified Eagle's medium (DMEM) and supplemented with 10% FBS (Qualified, Invitrogen) was added to each well; this time was considered T=0. Cultures were maintained for a period of up to 4 days, and culture media was replaced on alternate days to minimize handling. For alcian blue staining, culture medium was aspirated and cells were washed once with PBS. Cultures were fixed in 95% ethanol at −20° C. overnight. Fixative was removed by aspiration and cells were sequentially washed once with PBS, followed by 0.2M HCl. Cells were stained overnight with a 1% alcian blue solution prepared in 0.2M HCl.
# [7] = test system: Mmp13; assay: Mmp13 mRNA in murine limb bud-derived high-density cultures, TaqMan real-time PCR; assay type: cell-based; settings: BMP4 20 ng/ml, BAB 10 μM, 4310 100 nM; RNA at five and ten days; normalized to 5-day control
# Protocol: Murine limb bud-derived high-density cultures were established as previously described (Hoffman 2006). Media was replaced every three days. After 24 hours of culture, compounds were added at the following final concentrations: BMP4 (20 ng/ml), BAB (10 μM), and 4310 (100 nM). After 72 hours of culture, ascorbic acid and beta-glycerol phosphate were added to the culture at final concentrations of 126 μM and 1 mM, respectively. RNA was isolated from cultures at five and ten days. Gene expression was assessed using real-time PCR with TaqMan® probe and primer sets (Applied Biosystems, Taqman Gene Expression Assay Mm00439491_m1). All gene expression levels were normalized to the 5-day control (set at 100%). Results are shown in FIG. 7 and are the average of two replicates.
Molecule,activity of chondrogenic responsive reporter gene pGL3(4×48) [1],block of voltage-gated potassium channel Kv1 and 4 classes [2],block of Kv4.2 potassium channel [3],Sox9 expression [4],pGL3(4×48) reporter gene activity [5],chondrogenic activity [6],Mmp13 expression [7]
"Nc1ccncc1 [4-AP, 4-aminopyridine]",significantly induces,–,–,–,–,–,–
"CCCCOC(=O)c1ccc(N)cc1 [butamben, butyl 4-aminobenzoate]",significantly increase,blocks,blocked,increased Sox9 expression,increased,low micromolar concentrations of butamben stimulate chondrogenic activity,markedly decreased
"BMP4: bone morphogenetic protein-4 (protein, UniProt P12644 293-408, looked up) Bone morphogenetic protein 4: SPKHHSQRARKKNKNCRRHSLYVDFSDVGWNDWIVAPPGYQAFYCHGDCPFPLADHLNSTNHAIVQTLVNSVNSSIPKACCVPTELSAISMLYLDEYDKVVLKNYQEMVVEGCGCR",–,–,–,–,increased,–,increased
